From patent publication US20100203587A1, “USE OF DNA GYRASE INHIBITORS FOR IN VITRO POLYPEPTIDE SYNTHESIS REACTIONS” (priority 2009, published 2010)
Where two headings read alike, the source gives them in different places.

Assays:
[1] = tested on: bacterial growth in lysates used for cell-free reactions; assay: Inhibition of bacterial growth from lysate in LB medium (Example 5); format: cell-based; settings: 20 hours; for OD595: 30° C.; for Concentration that inhibits growth: Example 5, 30° C.
Procedure: 20 μl of lysate was inoculated into 2 ml LB medium, which contained 0, 0.1, 0.25, 0.5, and 1 μg/mL of Norfloxacin or 0, 1, 2.5, 5, and 10 μg/ml Coumermycin A1 and was incubated at 30° C. by shaking at 300 rpm. OD595 was assayed after incubation for 20 hours.

[2] = tested on: GM-CSF yields in cell-free reactions; assay: Cell-free protein synthesis reaction, GM-CSF yields; format: biochemical, E. coli; settings: for Concentration with very mild impact on GM-CSF yields in cell-free reactions: FIG. 3, 60 μL scale; for Concentration without impact in cell-free reactions: GM-CSF yields
Procedure: In vitro protein synthesis reactions occurred in lysates generated from a population of cells. The lysate must be generated such that it would be useful for expressing proteins. E. coli A19ΔendAΔtonAΔspeAΔtnaAΔsdaAΔsdaBΔgshAΔgorTrxBHAmet^+ was used for as the extract source cell strain.
E. coli cells were grown in a 10 L Braun Biostat C fermentor. The cells were grown on 2YPTG media in batch mode with pH control at pH 7.0. The cells were harvested at 3.2 OD (595) at growth rate of >0.7 per hour. Cells were separated from the media by centrifugation at 6000 g, 4° C. for 25 min and the resulting cell paste was stored at −80° C. The cell paste was thawed at 4° C. in S30 buffer (10 mM TRIS-acetate pH 8.2 (Sigma-Aldrich Corp. St. Louis, Mo.), 14 mM magnesium acetate (Sigma-Aldrich), and 60 mM potassium acetate (Sigma-Aldrich)) at a ratio of 1 mL of buffer per 1 g of wet cell paste. Resuspended cells were passed through a high pressure homogenizer (Emulsiflex C-50, Avestin Inc., Ottawa, Ontario, Canada). The pressure drop was set at 20000 psi. The homogenized mixture was then centrifuged at 30000 g, 4° C. for 30 minutes. The procedure was repeated twice and the supernatant was retained both times. The mixture was incubated at 37° C. for 80 min in a rotary shaker. The lysate was then centrifuged at 20000 g, 4° C. for 30 minutes and supernatant was retained.
The extract was pretreated with 50 μM iodoacetamide at 21° C. for 30 min. The plasmid contained the structural gene encoding the target protein and was constructed as explained above. Amino Acids were in an equimolar mixture of all 20 native amino acids.
The 250 μL of reaction mixture is spread on the bottom of a petri dish (BD Falcon) and incubated at 30° C. in a sealed humidified incubator for 5 hours. 300 mL reaction is performed in QPlus bioreactor, 4 L in 10 L Braun Biostat C fermentor and 100 L in 200 L fermentor (Sartorius).

bacterial strains = settings: cited from earlier work; for minimum inhibitory concentration (According to literature): Klein et al.
Clostridium difficile = Clostridium difficile (Shungu et al.); cited from earlier work
[3] = tested on: bacterial growth from lysate; assay: Inhibition of bacterial growth from lysate in LB medium (Example 6); format: cell-based; settings: 16 hours; for OD595 (cell density): 37° C.
[4] = tested on: hepatic nonprotein sulfhydryl groups (mainly reduced glutathione); settings: in vivo and in vitro studies using rats (Lake et al.; Fernyhough et al.); cited from earlier work

Coumermycin A1
OD595 ([1]; 1 μg/ml): 1.7
OD595 ([1]; 2.5 μg/ml): 1.2
OD595 ([1]; 5 μg/ml): 1.1
OD595 ([1]; 10 μg/ml): 0.2
Concentration that inhibits growth [1]: 10 µg/mL
Concentration with very mild impact on GM-CSF yields in cell-free reactions [2]: 10 µg/mL
Concentration without impact in cell-free reactions [2]: 10 µg/mL
Concentration that inhibits growth (According to literature) (bacterial strains; some strains tested (Hooper et al.)): 2 to 8 µg/mL

CCn1cc(C(=O)O)c(=O)c2cc(F)c(N3CCNCC3)cc21 [Norfloxacin]
OD595 ([1]; 0.1 μg/ml): 1.8
OD595 ([1]; 0.25 μg/ml): 1.3
OD595 ([1]; 0.5 μg/ml): 1.2
OD595 ([1]; 1 μg/ml): 0.06
Concentration that inhibits growth [1]: 1 µg/mL
Concentration with very mild impact on GM-CSF yields in cell-free reactions [2]: up to 2.5 μg/ml
Concentration without impact in cell-free reactions [2]: 2.5 µg/mL
Concentration that inhibits growth (According to literature) (bacterial strains; most gastrointestinal strains tested (Shungu et al.)): 0.008 to 1 µg/mL
inhibitory concentration (literature) (Clostridium difficile): 1 to 128 µg/mL

O=C(O)c1cn(C2CC2)c2cc(N3CCNCC3)c(F)cc2c1=O [Ciprofloxacin]
Concentration that inhibits growth ([3]; Example 6, 37° C.): 1 µg/mL
minimum inhibitory concentration (According to literature) (bacterial strains): 1 (1) μg/ml
minimum inhibitory concentration (According to literature) (bacterial strains; listed as ciprofloxacin): about 1 μg/ml

CO[C@@H]1[C@@H](OC(N)=O)[C@@H](O)[C@H](Oc2ccc3c(O)c(NC(=O)c4ccc(O)c(CC=C(C)C)c4)c(=O)oc3c2C)OC1(C)C [Novobiocin]
Effect on hepatic nonprotein sulfhydryl groups (mainly reduced glutathione) [4]: depletion of hepatic nonprotein sulfhydryl groups
OD595 (cell density) ([3]; 10 μg/ml): 0.003
OD595 (cell density) ([3]; 25 μg/ml): 0.17
OD595 (cell density) ([3]; 50 μg/ml): 0.08
OD595 (cell density) ([3]; 100 μg/ml): 0.1
OD595 (cell density) ([3]; 200 μg/ml): 0.13
Concentration that negatively impacts GM-CSF yields in cell-free reactions ([2]; FIG. 5): ≥ 10 µg/mL
Concentration that inhibits growth (According to literature) (bacterial strains; different bacterial strains (Smith and Davis)): 100 to 300 µg/mL
